Data on four molecules can be found in patent US11318079B2, “Polyhydroxylated (1-phenyl-2-phenyl) ethylene derivatives as an anti-ageing and photoprotective agent” (L'OREAL, priority 2015, dated 2022).

Where two headings read alike, the source gives them in different places.

The subject of assay [1] is keratinocytes of the HaCaT line. Nature of the assay: Production of reactive oxygen species (ROS) induced by UVA in HaCaT keratinocytes (DHR123 or DCFH-DA probe). Format: cell-based. The following applies: for EC50: Homo sapiens, light or radiation study, 24 h incubation, UVA exposure, concentration allowing 50% photoprotection (500 μM vitamin C = 100%); for ROS production decrease: UVA-induced ROS. On the procedure:
The decrease of the production of reactive oxygen species in keratinocytes of the HaCaT line is evaluated by detection, using the Dihydrorhodamine 123 (DHR123) probe or using Dichloro-dihydro-fluorescein diacetate (DCFH-DA) probe, the ROS production is induced by exposition to UVA after 24 h of incubation in the presence of the compounds to be tested. The DHR123 and DCFH-DA probes are indicators of the presence of reactive oxygen species (ROS). HaCaT keratinocytes in monolayer culture are placed in the presence of a solution of a compound to be tested at various concentrations (0.4-200 μM) in the medium. After 24 h of incubation, the cells are exposed to UVA, then incubated with the DHR123 probe or DCFH-DA probe for 1 h. The fluorescence of the probe is then measured. A viability test is carried out in parallel in order to discard the cytotoxic compounds. In parallel, the keratinocytes are incubated with vitamin C acting as a positive control and a standard: an incubation with 500 μM of vitamin C corresponds to 100% photoprotection. The dose-effect curves of the fluorescence detected as a function of the concentration of compounds (to be tested) present in the medium make it possible to calculate the effective dose EC50 which corresponds to the concentration of compound (to be tested) that allows 50% photoprotection of the keratinocytes.

The test system of assay [2] is AMPK pathway (pACC, phosphorylated Acetyl-CoA Carboxylase) in NHEK cells. Nature of the assay: Evaluation on AMPK pathway in NHEK cells by pACC immunolabeling. Format: cell-based, Human. The following applies: for % control (labeling % of the pACC compared to the control brought back to 100%) / global increase of the pACC labelling: NHEK cells, Compound 4 at 10 μM; for % control (labeling % of the pACC compared to the control brought back to 100%): 48 hours incubation, n=3, AICAR at 500 μM (0.5% DMSO); for global increase of the pACC labelling: AICAR reference at 500 μM. As for the experimental part:
Evaluation of the effect of compound 4 on the AMPK pathway in NHEK cells (Normal Human Epidermal Keratinocytes) by analysis of the pACC (Acetyl-CoA Carboxylase) phosphorylated form expression. This effect is studied by fluorescent immunolabeling and image analysis.
Keratinocytes are seeded in 96-well microplates and grown for 24 hours in a culture medium. The medium is then replaced by the test medium and cells are grown for 24 supplementary hours. Finally, the medium is replaced by the test medium comprising or not (control) the tested compounds, the reference (AICAR) or the control solvent (0.1% or 0.5% DMSO) then the cells are incubated for 48 hours. All the test conditions were carried out with n=3.
After incubation, the immunolabeling is done. The results are expressed in labeling % of the pACC compared to the control brought back to 100%.

The mark [3] stands for this setting: DCFH-DA probe, read-out: EC50- DCFH-DA.
Where [4] appears, read: DHR123 probe, read-out: EC50 -DHR123.

Take `COc1cc(/C=C/c2ccc(OC(C)=O)c(OC)c2)ccc1O` [Compound 5]: the EC50 in assay [1] (setting [3]) amounted to 29 µM. Also, the ROS production decrease entry in assay [1] is on record as “Yes”.

As for `NC(=O)c1ncn([C@@H]2O[C@H](CO)[C@@H](O)[C@H]2O)c1N` [AICAR, reference compound], in assay [2], the “% control (labeling % of the pACC compared to the control brought back to 100%)” value came to 117% and the “global increase of the pACC labelling” value amounted to 17%.

With `COc1cc(/C=C/c2ccc(OC)c(OC)c2)ccc1O` [Compound 4], in assay [1] (setting [4]), the EC50 came out at 100 µM. Further, the ROS production decrease entry in assay [1] is “Yes”. Besides, the “activation of the AMPK route in normal human keratinocytes” value in assay [2] (10 μM) is reported as “capable to active the AMPK route”. For the same molecule, in assay [2], the “% control (labeling % of the pACC compared to the control brought back to 100%)” value came to 119% and the “global increase of the pACC labelling” value was determined as 19%.

In the case of `COc1ccc(/C=C/c2ccc(O)c(OC)c2)cc1` [Compound 1], the EC50 in assay [1] (setting [3]) worked out at 20 µM; in assay [1] (setting [4]), 36 µM. Besides, the ROS production decrease result in assay [1] is given as “Yes”.
